Assay [1] concerns HFL-1 cells. Kind of assay: IL8 assay (S1P induced IL-8 production). The assay is classed as cell-based. Particulars: Homo sapiens, HFL1; S1P (1 μM) induced IL-8, HFL-1 cells, without HSA. The protocol:
(§1) S1P is able to induce cytokines such as IL-8 in a process that is S1PR2 dependent (O'Sullivan et al, 2014; Bruennert et al, 2015). This assay is designed to test inhibitory activity of compounds on S1P induced IL-8 on HFL-1 cells, a human fetal lung fibroblast cell line.
Human Fetal Lung cells (HFL-1) are seeded in 96 well plates in growth medium (F12K+10% heat inactivated FBS+1% Pen/strep). After overnight incubation at 37° C., 5% CO2 cells are refreshed with starvation medium without HSA (F12K+1% FBS+1% Pen/strep). On day three, compounds are added (10 point serial dilution, 30 μM highest concentration, ⅓ dilution, 0.3% DMSO final) and plates are incubated for one hour at 37° C., 5% CO2. Subsequently S1P at 1 μM final concentration is added and plates are incubated for 16 to 24 hours at 37° C., 5% CO2 after which the supernatant was collected. IL-8 levels in the supernatant are determined with the IL-8 ELISA of R&D systems.

Assay [2] deals with T1, human GPCR sphingosine 1-phosphate receptor 2 (S1PR2) (Homo sapiens, UniProt O95136).
T1 construct: host or cells: CHO
Put plainly: S1P2 antagonist assay (Ca2+ flux, S1P at EC80). The assay is classed as cell-based. The conditions noted are these: CHO-S1PR2 cells, highest concentration 20 μM. The gist of the method: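 CHO cells stably overexpressing human S1PR2, serum-starved 1 h and loaded with Fluo8 dye, were read for 3 min after compound addition, then stimulated with S1P at EC80 after 15 min at 37 °C. Top concentration 20 μM in a 10-point 1/3 series; Ca2+ fluorescence ratio normalized to vehicle and S1P EC80, giving EC50.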
(In general: Calcium flux is commonly read through the fluorescence of an indicator in the cells.)

For assay [3], the system named is HFL-1 cells. Put plainly: IL8 assay in the presence of Human Serum Albumin. The assay is classed as cell-based. The conditions noted are these: HFL1, S1P (5 μM) induced IL-8, HFL-1 cells, with 2% HSA, read-out: HSA IL8 EC50. As for the experimental part: as §1
To evaluate the influence of plasma protein binding of Sip as well as compound, the S1P induced IL-8 levels were evaluated in presence of 2% Human Serum Albumin (HSA, equivalent to 40% human serum). By adding 2% HSA, which affects both the activity of the compounds as well as the S1P potency, the physiological condition are reproduced and the shift in potency expected under in vivo serum conditions can be measured.
Human Fetal Lung cells (HFL-1) are seeded in 96 well plates in growth medium (F12K+10% heat inactivated FBS+1% Pen/strep). After overnight incubation at 37° C., 5% CO2 cells are refreshed with starvation medium with HSA (F12K+1% FBS+1% Pen/strep+1.95% HSA). On day three, compounds are added (10 point serial dilution, 30 μM highest concentration, 1/3 dilution, 0.3% DMSO final) and plates are incubated for 1 h at 37° C., 5% CO2. Subsequently S1P at 5 μM final concentration is added and plates are incubated for 16 to 24 h at 37° C., 5% CO2 after which the supernatant was collected. IL-8 levels in the supernatant are determined with the IL-8 ELISA of R&D systems.

In assay [4] the target is T2, human GPCR sphingosine 1-phosphate receptor 1 (S1PR1) (Homo sapiens, UniProt P21453).
T2 construct: host or cells: CHO
Kind of assay: S1PR1 selectivity assay (Ca2+ flux, antagonist). Format: cell-based. Particulars: S1P1 antagonist EC50, CHO cells overexpressing human S1PR1 and Gq protein. In a few lines: (§2)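 CHO cells stably overexpressing human S1PR1 or S1PR5 with Gq were preincubated with compound 15 min at 37 °C, then stimulated with S1P at EC80 (S1PR1) or an S1PR5-specific agonist (S1PR5). Ca2+ fluorescence was read for 3 min; 10-point 1/3 dilutions from 20 μM final, normalized to vehicle and EC80 trigger, gave EC50.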

The target in assay [5] is T3, human GPCR sphingosine 1-phosphate receptor 5 (S1PR5) (Homo sapiens, UniProt Q9H228).
T3 construct: host or cells: CHO
Put plainly: S1PR5 selectivity assay (Ca2+ flux, antagonist, S1PR5 specific agonist trigger). Format: cell-based. Particulars: S1P5 antagonist EC50, CHO cells overexpressing human S1PR5 and Gq protein. The gist of the method:
as §2

The next assay concerns the target T4, S1PR2 (Homo sapiens, UniProt O95136).
T4 construct: expressed in transfected cells
Kind of assay: GTP-γS binding assay ([35S]GTPγS, S1P at EC80, S1PR2 membranes). Format: biochemical. Particulars: membranes from stable cell line over expressing S1PR2, read-out: S1PR2 EC. In a few lines: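 Compounds tested against S1P at its EC80 on membranes (2.5 μg/well) from a stable S1PR2-overexpressing line, pre-incubated with 1 μM GDP 15 min at 4 °C. Buffer: 20 mM Tris pH 7.5, 10 mM MgCl2, 100 mM NaCl, 0.1% fatty-acid-free BSA, 50 ug/ml saponin. Incubated 4 h at room temperature; [35S]GTPγS binding read by WGA SPA beads.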
(Binding of GTPγS marks nucleotide exchange on a G protein.)

T3 sequence (Q9H228 whole entry): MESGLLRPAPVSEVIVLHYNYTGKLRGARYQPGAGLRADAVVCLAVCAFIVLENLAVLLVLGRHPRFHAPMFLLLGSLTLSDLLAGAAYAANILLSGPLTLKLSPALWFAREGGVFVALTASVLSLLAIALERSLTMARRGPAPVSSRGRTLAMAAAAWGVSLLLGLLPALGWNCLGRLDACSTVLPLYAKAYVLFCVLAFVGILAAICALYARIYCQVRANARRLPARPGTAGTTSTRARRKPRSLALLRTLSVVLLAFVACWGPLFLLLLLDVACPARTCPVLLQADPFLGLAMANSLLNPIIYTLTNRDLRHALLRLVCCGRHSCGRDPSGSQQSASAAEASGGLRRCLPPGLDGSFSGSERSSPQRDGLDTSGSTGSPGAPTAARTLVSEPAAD
T2 sequence (P21453 whole entry): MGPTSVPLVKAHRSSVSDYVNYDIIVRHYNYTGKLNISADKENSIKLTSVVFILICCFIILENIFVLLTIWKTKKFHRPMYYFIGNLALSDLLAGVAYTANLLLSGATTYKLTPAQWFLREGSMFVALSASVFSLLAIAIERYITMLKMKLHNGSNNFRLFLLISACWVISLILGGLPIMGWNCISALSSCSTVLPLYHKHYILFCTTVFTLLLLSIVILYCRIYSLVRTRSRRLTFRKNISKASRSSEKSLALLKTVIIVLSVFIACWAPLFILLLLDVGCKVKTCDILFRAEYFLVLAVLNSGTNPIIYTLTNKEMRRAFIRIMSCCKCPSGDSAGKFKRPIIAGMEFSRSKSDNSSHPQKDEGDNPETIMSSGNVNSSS
T1 sequence (O95136 whole entry): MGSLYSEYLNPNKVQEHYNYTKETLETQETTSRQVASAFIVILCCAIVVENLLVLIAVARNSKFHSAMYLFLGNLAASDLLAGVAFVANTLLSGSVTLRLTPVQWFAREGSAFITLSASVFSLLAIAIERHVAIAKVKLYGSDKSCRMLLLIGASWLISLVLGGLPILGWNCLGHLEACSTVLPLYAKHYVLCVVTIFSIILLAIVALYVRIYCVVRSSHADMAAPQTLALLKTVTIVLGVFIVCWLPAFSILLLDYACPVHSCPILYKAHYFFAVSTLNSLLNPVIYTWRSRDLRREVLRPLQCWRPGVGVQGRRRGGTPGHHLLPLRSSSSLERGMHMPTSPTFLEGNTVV
T4 sequence (O95136 whole entry): as above

With `Cn1cc(-c2nnc(CNC(=O)Nc3cc(Cl)nc(OCC(F)F)c3)cc2N2CC(F)(F)C2)c(C(F)(F)F)n1` [Compound 60, 1-[2-chloro-6-(2,2-difluoroethoxy)-4-pyridyl]-3-[[5-(3,3-difluoroazetidin-1-yl)-6-[1-methyl-3-(trifluoromethyl)pyrazol-4-yl]pyridazin-3-yl]methyl]urea], the EC50 with HFL-1 cells [1] worked out at 166 nM; in assay [2] it was 3280 nM; in assay [4] it was 2800 nM; in assay [5], 6610 nM; on S1PR2 it was 1520 nM. Moreover, the IC50 in the assay on HFL-1 cells [3] amounted to 4340 nM.

On to `CCOc1cc(NC(=O)NCc2cc(C)c(-c3cnn(C)c3C)nn2)cc(C(F)(F)F)n1` [Compound 69], for which the EC50 in the assay on HFL-1 cells [1] is 108 nM; in assay [2] it was 945 nM; in assay [4], at least 19800 nM; in assay [5] it was at least 19800 nM; on S1PR2 it was 751 nM. Also, in the assay on HFL-1 cells [3], the IC50 worked out at 9950 nM.

On to `CCOc1ncc(NC(=O)NCc2cc(C)c(-c3cn(C)nc3C(F)(F)F)nn2)cc1Cl` [Compound 8, 1-(5-chloro-6-ethoxy-3-pyridyl)-3-[[5-methyl-6-[1-methyl-3-(trifluoromethyl)pyrazol-4-yl]pyridazin-3-yl]methyl]urea], for which the EC50 was 82.9 nM in the assay with HFL-1 cells [1]; 22 nM in assay [2]; at least 19800 nM in assay [4]; at least 19800 nM in assay [5]; 306 nM on S1PR2. Further, the IC50 in the assay with HFL-1 cells [3] amounted to 169 nM.

With `CCOc1cc(N/C(=N/C#N)NCc2cc(C)c(-c3cn(C)nc3C(F)(F)F)nn2)cc(C(F)(F)F)n1` [Compound 76, 2-cyano-1-[2-ethoxy-6-(trifluoromethyl)-4-pyridyl]-3-[[5-methyl-6-[1-methyl-3-(trifluoromethyl)pyrazol-4-yl]pyridazin-3-yl]methyl]guanidine], the EC50 in the assay with HFL-1 cells [1] was 8 nM; in assay [2], 17 nM; in assay [4], 13200 nM; in assay [5], 6610 nM; at S1PR2, 62 nM. Also, the IC50 with HFL-1 cells [3] was 111 nM.

On to `CN(C)c1cc(CNC(=O)Nc2cc(Cl)nc(OCC(F)F)c2)nnc1-c1cn(C)nc1C(F)(F)F` [Compound 63, 1-[2-chloro-6-(2,2-difluoroethoxy)-4-pyridyl]-3-[[5-(dimethylamino)-6-[1-methyl-3-(trifluoromethyl)pyrazol-4-yl]pyridazin-3-yl]methyl]urea], for which the EC50 with HFL-1 cells [1] is 55.4 nM; in assay [2], 66.8 nM; in assay [4], 2080 nM; in assay [5], 11000 nM; on S1PR2 it was 298 nM. Moreover, in the assay on HFL-1 cells [3], the IC50 was found to be 829 nM.

Consider `CCOc1cc(NC(=O)NCc2cc(C)c(-c3cn(CC4COCCO4)nc3C(F)(F)F)nn2)cc(C(F)(F)F)n1` (stereo not drawn) [Compound 55, 1-[[6-[1-(1,4-dioxan-2-ylmethyl)-3-(trifluoromethyl)pyrazol-4-yl]-5-methyl-pyridazin-3-yl]methyl]-3-[2-ethoxy-6-(trifluoromethyl)-4-pyridyl]urea], for which the EC50 is 35.8 nM with HFL-1 cells [1]; 16.9 nM in assay [2]; at least 19800 nM in assay [4]; 6610 nM in assay [5]; 338 nM on S1PR2. Moreover, the IC50 in the assay on HFL-1 cells [3] worked out at 179 nM.

With `Cc1cc(CNC(=O)Nc2cc(C#N)nc(OCC(F)F)c2C)nnc1-c1cn(C)nc1C(F)(F)F` [Compound 59, 1-(6-cyano-2-(2,2-difluoroethoxy)-3-methyl-4-pyridyl]-3-[[5-methyl-6-[1-methyl-3-(trifluoromethyl)pyrazol-4-yl]pyridazin-3-yl]methyl]urea], the EC50 was 0.9 nM with HFL-1 cells [1]; 7.2 nM in assay [2]; 6610 nM in assay [4]; 5500 nM in assay [5]; 38.5 nM at S1PR2. In the assay on HFL-1 cells [3], the IC50 was determined as 116 nM.

Regarding `CCOc1cc(NC(=O)NCc2cc(C)c(-c3cn(C)nc3C3CC3)nn2)cc(C(F)(F)F)n1` [Compound 54, 1-[[6-(3-cyclopropyl-1-methyl-pyrazol-4-yl)-5-methyl-pyridazin-3-yl]methyl]-3-[2-ethoxy-6-(trifluoromethyl)-4-pyridyl]urea], the EC50 came to 11.6 nM with HFL-1 cells [1]; 15.3 nM in assay [2]; 2480 nM in assay [4]; 4580 nM in assay [5]; 151 nM at S1PR2. Moreover, in the assay with HFL-1 cells [3], the IC50 was found to be 278 nM.

As to `Cc1cc(CNC(=O)Nc2cc(Cl)nc(OCC(F)F)c2C)nnc1-c1cn(C)nc1C(F)(F)F` [Compound 50, 1-[6-chloro-2-(2,2-difluoroethoxy)-3-methyl-4-pyridyl]-3-[[5-methyl-6-[1-methyl-3-(trifluoromethyl)pyrazol-4-yl]pyridazin-3-yl]methyl]urea], the EC50 in the assay with HFL-1 cells [1] was 1.5 nM; in assay [2], 8 nM; in assay [4], 5920 nM; in assay [5], 3650 nM; on S1PR2, 24.1 nM. For the same molecule, the IC50 with HFL-1 cells [3] is 74 nM.

In the case of `Cc1cc(CNC(=O)Nc2cc(OCCO)nc(C(F)(F)F)c2)nnc1-c1cn(C)nc1C(F)(F)F` [Compound 4, 1-[2-(2-hydroxyethoxy)-6-(trifluoromethyl)-4-pyridyl]-3-[[5-methyl-6-[1-methyl-3-(trifluoromethyl)pyrazol-4-yl]pyridazin-3-yl]methyl]urea], the EC50 was 234 nM in the assay on HFL-1 cells [1]; 348 nM in assay [2]; at least 19800 nM in assay [4]; at least 19800 nM in assay [5]; 873 nM on S1PR2. In the assay on HFL-1 cells [3], the IC50 is 652 nM.

As for `CCOc1cc(NC(=O)NCc2cc(C)c(-c3cn(C)nc3C(F)(F)F)nn2)cc(C#N)n1` [Compound 18, 1-(2-cyano-6-ethoxy-4-pyridyl)-3-[[5-methyl-6-[1-methyl-3-(trifluoromethyl)pyrazol-4-yl]pyridazin-3-yl]methyl]urea], the EC50 was 4.6 nM in the assay on HFL-1 cells [1]; 10.9 nM in assay [2]; 6610 nM in assay [4]; at least 19800 nM in assay [5]; 35.8 nM on S1PR2. In addition, the IC50 in the assay with HFL-1 cells [3] is 29 nM.

As to `CCOc1nc(C(F)(F)F)cc(NC(=O)NCc2cc(C)c(-c3cn(C)nc3C(F)(F)F)nn2)c1C` [Compound 30, 1-[2-ethoxy-3-methyl-6-(trifluoromethyl)-4-pyridyl]-3-[[5-methyl-6-[1-methyl-3-(trifluoromethyl)pyrazol-4-yl]pyridazin-3-yl]methyl]urea], the EC50 in the assay with HFL-1 cells [1] came to 1.5 nM; in assay [2] it was 6.1 nM; in assay [4] it was 4480 nM; in assay [5] it was 3280 nM; on S1PR2 it was 26.2 nM. Besides, in the assay on HFL-1 cells [3], the IC50 was determined as 37.9 nM.

On to `CCOc1nc(C)cc(NC(=O)NCc2cc(C)c(-c3cn(C)nc3C(F)(F)F)nn2)c1Cl` [Compound 71, 1-(3-chloro-2-ethoxy-6-methyl-4-pyridyl)-3-[[5-methyl-6-[1-methyl-3-(trifluoromethyl)pyrazol-4-yl]pyridazin-3-yl]methyl]urea], for which the EC50 in the assay with HFL-1 cells [1] is 2 nM; in assay [2], 9 nM; in assay [4], 6610 nM; in assay [5] it was 6610 nM; at S1PR2, 25 nM. Besides, the IC50 with HFL-1 cells [3] came to 56 nM.

The values are drawn from US20190388421A1, “NOVEL COMPOUNDS AND PHARMACEUTICAL COMPOSITIONS THEREOF FOR THE TREATMENT OF FIBROSIS” (Galapagos NV, priority 2016, published 2019).
